Test results published in patent US9586986B2, “Substituted 7-deazapurine ribonucleosides for therapeutic uses” (Institute of Organic Chemistry and Biochemistry ASCR, v.v.i., priority 2014, dated 2017).

Assays:
[1] = tested on: K562-TAX; assay: Cytostatic/cytotoxic MTT assay, K562-TAX; assay type: cell-based; conditions: Homo sapiens, paclitaxel resistant subline, 72 h, read-out: MTT, IC50 K562-TAX
Description: (§1) Unless otherwise stated, all cells were purchased from the […] (ATCC). The CCRF-CEM line is derived from T lymphoblastic leukemia, evincing high chemosenzitivity, K562 represent cells from a […] patient sample with bcr-abl translocation, HCT116 is colorectal tumor cell line and its p53 gene knock-down counterpart (HCT116p53−/−, Horizon Discovery, UK) is a model of human cancers with p53 inactivation frequently associated with poor prognosis, A549 cell line is lung adenocarcinoma. The daunorubicin resistant subline of CCRF-CEM cells (CEM-DNR bulk) and paclitaxel resistant subline K562-TAX were selected in our laboratory by cultivation of maternal cell lines in increasing concentrations of daunorubicine or paclitaxel, respectively. The CEM-DNR cells overexpress mrp-1 and mdr-1 genes, while K562-TAX cells overexpress mdr-1 only. Both proteins belong to the family of ABC transporters and are involved in the primary and/or acquired multidrug resistance phenomenon (ref.: Gottesman, M. M.; Fojo, T.; Bates, S. E. Multidrug resistance in cancer: role of ATP-dependent transporters. Nat. Rev. Cancer. 2002, 2, 48-58. (b) Noskova, V.; Dzubak, P.; Kuzmina, G.; Ludkova, A.; Stehlik, D.; Trojanec, R.; Janostakova, A.; Korinkova, G.; Mihal, V.; Hajduch, M. In vitro chemoresistance profile and expression/function of MDR associated proteins in resistant cell lines derived from CCRF-CEM, K562, A549 and MDA MB 231 parental cells. Neoplasma 2002, 49, 418-425). Non-malignant MRC-5 and BJ cells, derived from normal human fibroblasts, were used as controls. The cells were maintained in Nunc/Corning 80 cm^2 plastic tissue culture flasks and cultured in cell culture medium (DMEM/RPMI 1640 with 5 g/L glucose, 2 mM glutamine, 100 U/mL penicillin, 100 µg/mL streptomycin, 10% fetal calf serum, and NaHCO3). Cell suspensions were prepared and diluted according to the particular cell type and the expected target cell density (25,000-30,000 cells/well based on cell growth characteristics). Cells were added by pipette (80 L) into 96-well microtiter plates. Inoculates were allowed a pre-incubation period of 24 h at 37° C. and 5% CO2 for stabilization. Four-fold dilutions, in 20-L aliquots, of the intended test concentration were added to the microtiter plate walls at time zero. All test compound concentrations were examined in duplicate. Incubation of the cells with the test compounds lasted for 72 h at 37° C., in a 5% CO2 atmosphere at 100% humidity. At the end of the incubation period, the cells were assayed using MTT. Aliquots (10 L) of the MTT stock solution (5 mg/ml) were pipetted into each well and incubated for another 1-4 h. After this incubation period the formazan produced was dissolved by addition of 100 µL/well of 10% aq SDS (pH 5.5), followed by a further incubation at 37° C. overnight. The optical density was measured at 540 nm. The IC50 value, the drug concentration inhibiting the cell growth by 50%, was calculated from appropriate dose-response curves.
(§2) In vitro cytotoxic/cytostatic activity final nucleosides 1-5 was initially evaluated against […] cell lines derived from human solid tumors including lung (A549 cells) and colon (HCT116 and HCT116p53−/−) carcinomas, as well as leukemia cell lines (CCRF-CEM, CEM-DNR, K562 and K562-TAX) and, for comparison, non-malignant BJ and MRC-5 fibroblasts. Concentrations inhibiting the cell growth by 50% (IC50) were determined using a quantitative metabolic staining with 3-(4,5-dimethylthiazol-2-yl)-2,5-diphenyltetrazolium bromide (MTT) (ref.: Denizot, F.; Lang, R. Rapid colorimetric assay for cell growth and survival: Modifications to the tetrazolium dye procedure giving improved sensitivity and reliability. J. Immunol. Meth. 1986, 89, 271-277) following a 3-day treatment.
(§3) Multidrug resistance is a major therapeutic problem in cancer chemotherapy. […]

[2] = tested on: CEM-DNR-bulk; assay: Cytostatic/cytotoxic MTT assay, CEM-DNR-bulk; assay type: cell-based; conditions: Homo sapiens; daunorubicin resistant subline, 72 h; read-out: MTT, IC50 CEM-DNR-bulk
Description: as §1, §2, §3

[3] = tested on: CCRF-CEM; assay: Cytostatic/cytotoxic MTT assay, CCRF-CEM; assay type: cell-based; conditions: Homo sapiens, 72 h incubation, read-out: MTT, IC50 CCRF-CEM
Description: as §1, §2

[4] = tested on: K562; assay: Cytostatic/cytotoxic MTT assay, K562; assay type: cell-based; conditions: Homo sapiens, K562; 72 h incubation; read-out: MTT, IC50 K562
Description: as §1, §2

[5] = tested on: HL60; assay: XTT cytotoxicity assay, HL-60; assay type: cell-based; conditions: Homo sapiens, HL-60; 72 h incubation; read-out: XTT, IC50 HL60
Protocol: (§4) HL-60, Hela S3 and HepG2 cell lines (ATCC) were grown in RPMI-1640 or DMEM medium supplemented with 10% fetal calf serum, […] of streptomycin, 200 U/mL of penicillin G and 4 mM glutamine in a humidified atmosphere containing 5% CO2 at 37° C. Sensitivity of these cell lines to the synthesized compounds was assessed with the use of XTT cell proliferation kit II (Roche Diagnostics GmbH, Mannheim, Germany) according to the manufacturer's instructions. Briefly, cells were seeded in a 96-well plate at a density of 10,000 cells per well (90 μL). After 24 h, 10 μL of the tested compounds were added to the culture media at desired concentration range and incubated for 72 h. After that 50 μL of the XTT solution was added (1 mg/mL XTT+0.383 mg/mL N-methyl dibenzopyrazine methyl sulfate). The absorbance was recorded at 495 nm following a 2 h-incubation with the dye. IC50 values were determined by non-linear regression method using GraphPad Prism version 5.00 for Windows (GraphPad Software, La Jolla, Calif., USA).
(§5) In addition, the anti-proliferative effect was tested against a human T-lymphoblastic leukemia line CCRF-CEM, promyelocytic leukemia HL-60 and cervical carcinoma HeLa S3 growing in liquid suspension. Cell viability was determined following a 3-day incubation using 2,3-bis-(2-methoxy-4-nitro-5-sulfophenyl)-2H-tetrazolium-5-carboxanilide (XTT) assay (ref.: Scudiero, D. A.; Shoemaker, R. H.; Paull, K. D.; Monks, A.; Tierney, S.; Nofziger, T. H.; Currens, M. J.; Seniff, D.; Boyd M. R. Evaluation of a Soluble Tetrazolium/Formazan Assay for Cell Growth and Drug Sensitivity in Culture Using Human and Other Tumor Cell Lines. Cancer Res. 1988, 48, 4827-4833).

[6] = tested on: HepG2; assay: XTT cytotoxicity assay, HepG2; assay type: cell-based; conditions: Homo sapiens, HepG2; 72 h incubation; read-out: XTT, IC50 HepG2
Protocol: as §4

[7] = tested on: BJ; assay: Cytostatic/cytotoxic MTT assay, BJ fibroblasts; assay type: cell-based; conditions: Homo sapiens, non-malignant fibroblasts, 72 h, read-out: MTT, IC50 BJ
Description: as §1, §2

[8] = tested on: HeLa S3; assay: XTT cytotoxicity assay, HeLa S3; assay type: cell-based; conditions: Homo sapiens, HeLa S3; 72 h incubation; read-out: XTT, IC50 HeLa S3
Protocol: as §4, §5

[9] = tested on: HCT116p53-/-; assay: Cytostatic/cytotoxic MTT assay, HCT116p53-/-; assay type: cell-based; conditions: Homo sapiens, HCT-116; 72 h incubation; read-out: MTT, IC50 HCT116 p53-/-
Description: as §1, §2, §3

[10] = tested on: MRC-5; assay: Cytostatic/cytotoxic MTT assay, MRC-5 fibroblasts; assay type: cell-based; conditions: Homo sapiens, MRC5; non-malignant fibroblasts, 72 h; read-out: MTT, IC50 MRC-5
Description: as §1, §2

[11] = tested on: A549; assay: Cytostatic/cytotoxic MTT assay, A549; assay type: cell-based; conditions: Homo sapiens, A549; 72 h incubation; read-out: MTT, IC50 A549
Description: as §1, §2

[12] = tested on: HCT116; assay: Cytostatic/cytotoxic MTT assay, HCT116; assay type: cell-based; conditions: Homo sapiens, HCT-116; 72 h incubation; read-out: MTT, IC50 HCT116
Description: as §1, §2, §3

melting point | Structure (SMILES) | IC50 [1] | IC50 [2] | IC50 [3] | IC50 [4] | IC50 [5] | IC50 [6] | IC50 [7] | IC50 [8] | IC50 [9] | IC50 [10] | IC50 [11] | IC50 [12]
– | CNc1ncnc2c1c(I)cn2[C@@H]1O[C@H](CO)[C@@H](O)[C@H]1O [Compound 3h, 5-Iodo-4-methylamino-7-(β-D-ribofuranosyl)-7H-pyrrolo[2,3-d]pyrimidine] | > 20 µM | > 20 µM | > 100 µM | > 100 µM | > 20 µM | > 20 µM | > 100 µM | > 20 µM | > 100 µM | > 100 µM | > 100 µM | > 100 µM
– | Cc1ncnc2c1c(I)cn2[C@@H]1O[C@H](CO)[C@@H](O)[C@H]1O [Compound 5h, 5-Iodo-4-methyl-7-(β-D-ribofuranosyl)-7H-pyrrolo[2,3-d]pyrimidine] | > 20 µM | 12.6 µM | 5.48 µM | 17.8 µM | 2.65 µM | 3.46 µM | > 100 µM | 4.08 µM | 7.57 µM | 13.3 µM | 12.2 µM | 4.72 µM
188 to 189 °C | Cc1ncnc2c1c(Br)cn2[C@@H]1O[C@H](CO)[C@@H](O)[C@H]1O [Compound 5i, 5-Bromo-4-methyl-7-(β-D-ribofuranosyl)-7H-pyrrolo[2,3-d]pyrimidine] | 15.8 µM | > 20 µM | 15 µM | > 20 µM | 7.24 µM | 5.55 µM | > 100 µM | 13.8 µM | 19.6 µM | 24.4 µM | > 20 µM | 15.7 µM
